Test results taken from the Deep4Chem optical property database.
Each block holds one compound with its values, some of them ahead of it.

Experiment: solvent given as SMILES

SMILES: CCCCCCc1cc2/c(=C(\C#N)C(=O)OC)s/c(=c3/s/c(=C(/C#N)C(=O)OC)c4cc(CCCCCC)sc34)c2s1
emission maximum (in Cc1ccccc1): 605 nm

SMILES: F[B-]1(F)n2c(ccc2-c2cccs2)C(C(F)(F)F)=C2C=CC(c3cccs3)=[N+]21
emission maximum (in CCCCCC): 674 nm

SMILES: c1ccc(N2N=C(c3ccc4ccc5cccc6ccc3c4c56)CC2c2ccc3ccc4cccc5ccc2c3c45)cc1 (configuration not stated)
emission maximum (in ClCCl): 508 nm

SMILES: CCCCN1C(=O)C(=C/C=C/C=C/C=C2N(CCCC)c3ccccc3N2CCCC)C(=O)N(CCCC)C1=S
emission maximum (in CC#N): 688 nm | emission maximum (in CCCCCC): 707 nm | emission maximum (in CCO): 685 nm | emission maximum (in CN(C)C=O): 690 nm | emission maximum (in CO): 682 nm | emission maximum (in Cc1ccccc1): 715 nm | emission maximum (in ClC(Cl)Cl): 702 nm | emission maximum (in ClCCl): 697 nm | emission maximum (in OCC(F)(F)F): 663 nm

SMILES: N#Cc1c(N2CCCCC2)cc(-c2cccs2)c2c1CCc1ccccc1-2
emission maximum (in C1CCOC1): 474 nm

SMILES: Cc1cc(C2(c3cc(C)c(O)c(Br)c3)OS(=O)(=O)c3ccccc32)cc(Br)c1O
emission maximum (in C1CCOC1): 492 nm | emission maximum (in C1COCCO1): 450 nm | emission maximum (in CC#N): 497 nm | emission maximum (in CC(C)(C)O): 473 nm | emission maximum (in CC(C)=O): 490 nm | emission maximum (in CC(C)O): 498 nm | emission maximum (in CCCCCO): 485 nm | emission maximum (in CCCO): 505 nm | emission maximum (in CCO): 507 nm | emission maximum (in CCOC(C)=O): 478 nm | emission maximum (in CCOCC): 476 nm | emission maximum (in CO): 502 nm

SMILES: CN(C)c1ccc(C(=O)Nc2ccc([N+](=O)[O-])cc2)cc1
emission maximum (in C1CCCCC1): 360 nm | emission maximum (in C1CCOC1): 400 nm | emission maximum (in CC#N): 430 nm | emission maximum (in CCOCC): 536 nm

SMILES: CCCCN1C(=O)C(=CC=C2N(CCCC)c3ccccc3N2CCCC)C(=O)N(CCCC)C1=S
emission maximum (in CCCCCC): 488 nm | emission maximum (in CCO): 478 nm | emission maximum (in CN(C)C=O): 482 nm | emission maximum (in Cc1ccccc1): 490 nm | emission maximum (in ClC(Cl)Cl): 489 nm | emission maximum (in ClCCl): 486 nm

SMILES: N#Cc1cccc2cc[nH]c12
emission maximum (in C1CCOC1): 368 nm | emission maximum (in C1COCCO1): 367 nm | emission maximum (in CC#N): 378 nm | emission maximum (in CC(C)O): 380 nm | emission maximum (in CCO): 382 nm | emission maximum (in CO): 387 nm | emission maximum (in CS(C)=O): 391 nm | emission maximum (in O): 400 nm | emission maximum (in OCC(F)(F)F): 391 nm

SMILES: CCCCCCc1ccc2c(/C=N/c3ccc(/N=C/c4c(O)ccc5cc(CCCCCC)ccc45)cc3)c(O)ccc2c1
emission maximum (in C1CCOC1): 542 nm | emission maximum (in CC#N): 539 nm | emission maximum (in Cc1ccccc1): 546 nm | emission maximum (in ClCCl): 546 nm

SMILES: OB(O)c1ccc(-c2ccc(N(c3ccccc3)c3ccccc3)cc2)cc1
emission maximum (in C1CCCCC1): 384 nm | emission maximum (in C1CCOC1): 410 nm | emission maximum (in CCO): 422.4 nm | emission maximum (in CCOCC): 398 nm | emission maximum (in CO): 432 nm

SMILES: CN(C)c1ccc2c(c1)C(=O)NC2=O
emission maximum (in C1CCOC1): 459 nm | emission maximum (in C1COCCO1): 457 nm | emission maximum (in CC#N): 490 nm | emission maximum (in CC(C)(C)O): 516 nm | emission maximum (in CC(C)=O): 483 nm | emission maximum (in CC(C)O): 523 nm | emission maximum (in CCOCC): 440 nm | emission maximum (in CO): 534 nm | emission maximum (in O): 562 nm

SMILES: CC1(C)c2ccccc2N(c2ccc3c(c2)c2cc(N4c5ccccc5C(C)(C)c5ccccc54)ccc2c2nc(C#N)c(C#N)nc32)c2ccccc21
emission maximum (in C1COCCO1): 753.65 nm | emission maximum (in CCCCCC): 572.45 nm | emission maximum (in Cc1ccccc1): 678 nm | emission maximum (in O=P(c1ccccc1)(c1ccccc1)c1cccc(-c2cc(-n3c4ccccc4c4ccccc43)cc(-n3c4ccccc4c4ccccc43)c2)n1): 618 nm

SMILES: COc1cc2c(cc1/C=C(\C#N)c1nc3ccccc3s1)c1ccccc1n2C
emission maximum (in C1CCOC1): 499 nm | emission maximum (in CC#N): 509 nm | emission maximum (in CCOC(C)=O): 493 nm | emission maximum (in CN(C)C=O): 508 nm | emission maximum (in CO): 510 nm | emission maximum (in CS(C)=O): 518 nm | emission maximum (in Cc1ccccc1): 494 nm | emission maximum (in ClC(Cl)Cl): 504 nm | emission maximum (in ClCCl): 501 nm

SMILES: Cc1nn(-c2ccccc2)c2c1c(=O)oc1ccc(-n3c4ccccc4c4ccccc43)cc12
emission maximum (in Cc1ccccc1): 412 nm

SMILES: c1ccc(N(c2ccccc2)c2ccc(-c3ccc4c(c3)C3(c5ccccc5Oc5ccccc53)c3cc(-c5ccc(N(c6ccccc6)c6ccccc6)cc5)ccc3-4)cc2)cc1
emission maximum (in ClCCl): 457 nm | emission maximum (in c1cc(-n2c3ccccc3c3ccccc32)cc(-n2c3ccccc3c3ccccc32)c1): 441 nm

SMILES: C/C=C/c1cc(OC)cc(OC)c1
emission maximum (in CC#N): 343 nm | emission maximum (in CCCCCC): 338 nm

SMILES: c1cc2ccc1-c1ccc(cc1)-c1ccc([se]1)-c1ccc(cc1)-c1ccc(cc1)-c1ccc([se]1)-c1ccc(cc1)-c1ccc(cc1)-c1ccc-2[se]1
emission maximum (in C1CCOC1): 560 nm

Next, values leading:

emission maximum (in ClCCl): 632 nm
SMILES: COc1ccc(C2=C(c3ccc(OC)cc3)c3cccc4c5c(cc(c34)O2)=NC(C#N)C(C#N)N=5)cc1 (configuration not stated)

emission maximum (in C1COCCO1): 373 nm | emission maximum (in CC#N): 372 nm | emission maximum (in CC(C)(C)O): 381 nm | emission maximum (in CC(C)O): 378 nm | emission maximum (in CCCCO): 378 nm | emission maximum (in CCOC(C)=O): 375 nm | emission maximum (in CN(C)C=O): 375 nm | emission maximum (in CO): 380 nm | emission maximum (in ClCCl): 411 nm | emission maximum (in O): 407 nm
SMILES: COc1ccc(C(=O)/C=C2\C(=O)Nc3ccccc32)cc1

emission maximum (in ClC(Cl)Cl): 516.4 nm
SMILES: CC1=CC(C)=[N+]2C1=C(c1ccc(I)cc1)c1c(C)cc(C)n1[B-]21Oc2ccc3ccccc3c2-c2c(ccc3ccccc23)O1

emission maximum (in C1CCCCC1): 330 nm | emission maximum (in CC#N): 344 nm | emission maximum (in CO): 350 nm | emission maximum (in O): 351 nm
SMILES: CCOC(=O)CCOc1ccc(C(c2c(C)[nH]c3ccccc23)c2c(C)[nH]c3ccccc23)cc1OC

emission maximum (in C1CCCCC1): 390 nm
SMILES: CCC(C)(C)c1ccc(-c2ccc3c(c2)C(CCOC)(CCOC)c2cc4c(cc2-3)C(CCOC)(CCOC)c2cc(-c3ccc(C(C)(C)CC)cc3)ccc2-4)cc1

emission maximum (in CC1CCCCC1): 488 nm | emission maximum (in CC#N): 494 nm
SMILES: C(=C\c1c2ccccc2cc2ccccc12)/c1cnc2ccccc2c1

emission maximum (in ClCCl): 508 nm
SMILES: COc1ccc(C#Cc2nc3ccccc3nc2-c2csc(OC)c2)cc1

emission maximum (in C1COCCO1): 366 nm | emission maximum (in CC#N): 373 nm | emission maximum (in CCCCCC): 365 nm | emission maximum (in CCCCO): 370 nm | emission maximum (in CCO): 369 nm | emission maximum (in CCOC(C)=O): 370 nm | emission maximum (in CO): 368 nm | emission maximum (in ClC(Cl)Cl): 366 nm | emission maximum (in ClCCl): 364 nm | emission maximum (in c1ccccc1): 372 nm
SMILES: COc1cccc(-n2c(-c3ccccc3)nc(C)c2C)c1

emission maximum (in CCCCCC): 495 nm
SMILES: CCc1ccc2ccc(-c3ccccc3)nn12

emission maximum (in CO): 797 nm
SMILES: CC1(C)C(/C=C/C2=C(Oc3ccc(CCN=C=S)cc3Cl)C(=C/C=C3/N(CCCS(=O)(=O)[O-])c4ccccc4C3(C)C)/CCC2)=[N+](CCCS(=O)(=O)[O-])c2ccccc21

emission maximum (in CC#N): 484 nm | emission maximum (in ClCCl): 537 nm
SMILES: COC(=O)c1cc(=O)n(C)c2cc(-c3ccccc3N(C)C)sc12

emission maximum (in C1CCCCC1): 416 nm
SMILES: C(#Cc1ccccc1)C1=Cc2ccc3ccccc3c2NB1c1ccccc1

emission maximum (in ClCCl): 545 nm
SMILES: CCCCN1C(=O)C2=C(c3ccc(-c4ccccc4)cc3)NC(=O)C2=C1c1ccc(-c2ccccc2)cc1

emission maximum (in ClCCl): 481 nm
SMILES: CCOC(=O)c1ccc(C2CC(c3cccc4ccccc34)=NN2c2ccc(F)cc2)cc1 (configuration not stated)

emission maximum (in ClC(Cl)Cl): 487 nm
SMILES: FC(F)(F)c1ccc2oc3nc4oc5ccc(N(c6ccccc6)c6ccccc6)cc5c4cc3c2c1

emission maximum (in CC#N): 602 nm
SMILES: O=[N+]([O-])c1ccc(/C=C/c2nc3c4ccccc4c4ccccc4c3o2)cc1

emission maximum (in ClCCl): 465 nm
SMILES: CN1CCN(c2cccc(/C=C/c3ncc(-c4ccc(OCc5ccccc5)c(OCc5ccccc5)c4)o3)c2)CC1

emission maximum (in ClC(Cl)Cl): 408 nm
SMILES: N#Cc1cc2ccc(C(F)(F)F)cc2c2c1ccc1ccccc12
